Data published in patent US20080242649A1, “New Combination 665” (priority 2007, published 2008).

Experiments:
Details in all cases: compound and its salts
[1] = target: T1, recombinant human adrenergic beta 1 receptors (Homo sapiens, UniProt P08588); test: Adrenergic β1 [125I]-Iodocyanopindolol binding
T1 construct: purchased Euroscreen
Protocol: Membranes containing recombinant human adrenergic beta 1 receptors were obtained from Euroscreen. These were diluted in Assay Buffer (50 mM HEPES, 1 mM EDTA, 120 mM NaCl, 0.1% gelatin, pH 7.4) to provide a final concentration of membranes that gave a clear window between maximum and minimum specific binding.
(§1) Assays were performed in U-bottomed 96-well polypropylene plates. 10 PL [1251]-Iodocyanopindolol (0.036 nM final concentration) and 10 μL of Compound A (10× final concentration) were added to each test well. For each assay plate 8 replicates were obtained for [^125]-Iodocyanopindolol binding in the presence of 10 μL vehicle (10% (v/v) DMSO in Assay Buffer; defining maximum binding) or 10 μL Propranolol (10 μM final concentration; defining non-specific binding (NSB)). Membranes were then added to achieve a final volume of 100 μL. […] Five washes with 250 μL wash buffer (50 mM HEPES, 1 mM EDTA, 120 mM NaCl, pH 7.4) were performed at 4° C. to remove unbound radioactivity. […] The plates were sealed (TopSeal A) and filter-bound radioactivity was measured with a scintillation counter (TopCount, Packard BioScience) using a 3-minute counting protocol.
(§2) Total specific binding (B0) was determined by subtracting the mean NSB from the mean maximum binding. […]

[2] = target: T2, recombinant human α1D receptor (Homo sapiens, UniProt P25100); test: Adrenergic α1D [3H]-prazosin binding, HEK293 membranes
T2 construct: expressed in transfected cells; host or cells: HEK293 cells (membranes)
T2 sequence (P25100 1-572): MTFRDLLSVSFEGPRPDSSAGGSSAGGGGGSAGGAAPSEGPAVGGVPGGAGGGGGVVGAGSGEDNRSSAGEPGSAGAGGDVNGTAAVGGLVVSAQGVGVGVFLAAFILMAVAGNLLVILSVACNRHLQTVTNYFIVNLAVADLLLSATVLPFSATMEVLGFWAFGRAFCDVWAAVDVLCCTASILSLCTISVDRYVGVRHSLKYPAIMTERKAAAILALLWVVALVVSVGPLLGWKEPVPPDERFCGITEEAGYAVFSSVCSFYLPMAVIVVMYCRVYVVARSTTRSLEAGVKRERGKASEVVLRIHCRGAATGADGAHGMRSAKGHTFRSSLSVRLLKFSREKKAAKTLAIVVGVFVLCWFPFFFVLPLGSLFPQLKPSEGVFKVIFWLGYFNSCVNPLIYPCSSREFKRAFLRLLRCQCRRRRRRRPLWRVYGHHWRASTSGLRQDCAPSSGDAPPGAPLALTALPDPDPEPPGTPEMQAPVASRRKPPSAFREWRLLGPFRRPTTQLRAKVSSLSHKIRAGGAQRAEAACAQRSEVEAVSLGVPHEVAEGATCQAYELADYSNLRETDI
Protocol: Membranes were prepared from human embryonic kidney 293 (HEK293) cells expressing recombinant human α1D receptor. These were diluted in Assay Buffer (50 mM HEPES, 1 mM EDTA, 0.1% gelatin, pH 7.4) to provide a final concentration of membranes that gave a clear window between maximum and minimum specific binding.
as §1, with “μL [^3H]-prazosin (0.3” for “PL [1251]-Iodocyanopindolol (0.036”, “[^3H]-prazosin” for “[^125]-Iodocyanopindolol”, “BMY7378” for “Propranolol”, “EDTA,” for “EDTA, 120 mM NaCl,”
as §2

[3] = target: T3, recombinant human Dopamine Subtype D2s receptors (Homo sapiens, UniProt P14416); test: Dopamine D2 [3H]-spiperone binding
T3 construct: purchased Perkin Elmer
T3 sequence (P14416 1-414 isoform P14416-2): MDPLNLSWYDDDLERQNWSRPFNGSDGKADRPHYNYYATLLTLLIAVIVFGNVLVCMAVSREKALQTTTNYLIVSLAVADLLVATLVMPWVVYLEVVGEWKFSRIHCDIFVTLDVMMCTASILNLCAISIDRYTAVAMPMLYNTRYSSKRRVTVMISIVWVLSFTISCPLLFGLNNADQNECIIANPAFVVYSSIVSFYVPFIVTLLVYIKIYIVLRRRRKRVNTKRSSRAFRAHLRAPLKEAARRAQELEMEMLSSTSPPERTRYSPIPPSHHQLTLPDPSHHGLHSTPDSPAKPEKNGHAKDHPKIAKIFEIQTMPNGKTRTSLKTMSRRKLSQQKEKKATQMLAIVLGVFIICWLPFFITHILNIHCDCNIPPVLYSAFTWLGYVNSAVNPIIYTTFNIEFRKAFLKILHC
Protocol: Membranes containing recombinant human Dopamine Subtype D2s receptors were obtained from Perkin Elmer. These were diluted in Assay Buffer (50 mM HEPES, 1 mM EDTA, 120 mM NaCl, 0.1% gelatin, pH 7.4) to provide a final concentration of membranes that gave a clear window between maximum and minimum specific binding.
Assays were performed in U-bottomed 96-well polypropylene plates. 30 PL [^3H]-spiperone (0.16 nM final concentration) and 30 μL of Compound A (10× final concentration) were added to each test well. For each assay plate 8 replicates were obtained for [^3H]-spiperone binding in the presence of 30 PL vehicle (10% (v/v) DMSO in Assay Buffer; defining maximum binding) or 30 μL Haloperidol (10 PM final concentration; defining non-specific binding (NSB)). Membranes were then added to achieve a final volume of 300 μL. […] Five washes with 250 μL wash buffer (50 mM HEPES, 1 mM EDTA, 120 mM NaCl, pH 7.4) were performed at 4° C. to remove unbound radioactivity. […] The plates were sealed (TopSeal A) and filter-bound radioactivity was measured with a scintillation counter (TopCount, Packard BioScience) using a 3-minute counting protocol.
as §2

T1 sequence (P08588 whole entry): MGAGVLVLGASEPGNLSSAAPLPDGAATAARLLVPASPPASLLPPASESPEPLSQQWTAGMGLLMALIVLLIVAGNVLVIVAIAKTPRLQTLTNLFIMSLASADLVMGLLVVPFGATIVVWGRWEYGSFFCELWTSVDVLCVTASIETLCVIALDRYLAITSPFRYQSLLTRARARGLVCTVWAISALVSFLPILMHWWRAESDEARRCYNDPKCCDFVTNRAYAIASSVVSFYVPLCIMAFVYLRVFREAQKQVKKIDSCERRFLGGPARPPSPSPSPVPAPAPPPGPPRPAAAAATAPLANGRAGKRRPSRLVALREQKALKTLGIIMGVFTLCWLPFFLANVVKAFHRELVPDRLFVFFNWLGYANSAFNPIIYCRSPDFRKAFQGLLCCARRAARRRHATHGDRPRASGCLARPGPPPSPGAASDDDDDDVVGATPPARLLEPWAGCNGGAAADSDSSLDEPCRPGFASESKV

CCN(CC)CCN(CCNCCc1ccc(O)c2[nH]c(=O)sc12)C(=O)CCOCCc1cccc2ccccc12 [N-[2-(Diethylamino)ethyl]-N-(2-{[2-(4-hydroxy-2-oxo-2,3-dihydro-1,3-benzothiazol-7-yl)ethyl]amino}ethyl)-3-[2-(1-naphthyl)ethoxy]propanamide]
≥ 10 fold: selectivity of β2 adrenoceptor agonism over adrenergic β1 [1] | selectivity of β2 adrenoceptor agonism over adrenergic α1D [2] | selectivity of β2 adrenoceptor agonism over dopamine D2 [3]
